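Five concentrations, 48 hours, 96-well plates. GI50 marks 50% less growth. TGI marks complete inhibition of growth.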
What was measured:
Assay in all cases: growth of human tumour cells (NCI), 48 h
[1] = tested on: SK-MEL-5 melanoma
[2] = tested on: SK-MEL-28 melanoma
[3] = tested on: PC-3 prostate
[4] = tested on: EKVX NSCLC
[5] = tested on: NCI/ADR-RES ovarian
[6] = tested on: DU-145 prostate
[7] = tested on: RXF 393 renal
[8] = tested on: U251 CNS
[9] = tested on: KM12 colon
[10] = tested on: NCI-H226 lung
[11] = tested on: TK-10 renal
[12] = tested on: SF-295 CNS
[13] = tested on: NCI-H460 lung
[14] = tested on: LOX IMVI melanoma
[15] = tested on: HS 578T breast
[16] = tested on: T-47D breast
[17] = tested on: OVCAR-3 ovarian
[18] = tested on: K-562 leukemia
[19] = tested on: UACC-62 melanoma
[20] = tested on: HCC-2998 colon
[21] = tested on: M14 melanoma
[22] = tested on: SF-539 CNS
[23] = tested on: SNB-75 CNS
[24] = tested on: COLO 205 colon
[25] = tested on: IGROV1 ovarian
[26] = tested on: 786-0 renal
[27] = tested on: SN12C renal
[28] = tested on: SK-MEL-2 melanoma
[29] = tested on: HCT-15 colon
[30] = tested on: CAKI-1 renal
[31] = tested on: SF-268 CNS
[32] = tested on: MALME-3M melanoma
[33] = tested on: HCT-116 colon
[34] = tested on: HL-60(TB) leukemia
[35] = tested on: MDA-MB-231 breast
[36] = tested on: BT-549 breast
[37] = tested on: HT29 colon
[38] = tested on: SK-OV-3 ovarian
[39] = tested on: OVCAR-8 ovarian
[40] = tested on: SW-620 colon
[41] = tested on: UO-31 renal
[42] = tested on: SR leukemia
[43] = tested on: OVCAR-5 ovarian
[44] = tested on: A549 NSCLC
[45] = tested on: OVCAR-4 ovarian
[46] = tested on: NCI-H522 lung
[47] = tested on: MCF7 breast
[48] = tested on: SNB-19 CNS
[49] = tested on: MOLT-4 leukemia
[50] = tested on: RPMI-8226 leukemia
[51] = tested on: CCRF-CEM leukemia
[52] = tested on: A498 renal
[53] = tested on: HOP-92 NSCLC
[54] = tested on: NCI-H23 lung
[55] = tested on: UACC-257 melanoma
[56] = tested on: MDA-MB-435
[57] = tested on: ACHN renal
[58] = tested on: HOP-62 NSCLC
[59] = tested on: MDA-MB-468 breast

`COc1cccc(-c2ccc(/C=N/NC(=O)c3[nH]c4ccc(Br)cc4c3-c3ccccc3)s2)c1` was tested, and the GI50 [1] was 2.7 µM, the TGI [1] was 10.4 µM and the GI50 [2] was 8.33 µM. The TGI [2] was > 100 µM, the GI50 [3] was 3.75 µM and the TGI [3] was > 100 µM. The GI50 [4] was 7.39 µM, the TGI [4] was > 100 µM and the GI50 [5] was 2.16 µM. For the same compound, the TGI [5] was 5.91 µM, the GI50 [6] was 3.62 µM and the TGI [6] was > 100 µM. The GI50 [7] was 5.03 µM, the TGI [7] was 93.5 µM and the GI50 [8] was 4.92 µM. The TGI [8] was 72.2 µM, the GI50 [9] was 3.08 µM and the TGI [9] was 19.3 µM. For the same compound, the GI50 [10] was 3.39 µM, the TGI [10] was > 100 µM and the GI50 [11] was 9.97 µM. For the same compound, the TGI [11] was > 100 µM, the GI50 [12] was 3.07 µM and the TGI [12] was 87 µM. The GI50 [13] was 3.01 µM, the TGI [13] was 12.5 µM and the GI50 [14] was 2.45 µM. For the same compound, the TGI [14] was 36.4 µM, the GI50 [15] was 2.4 µM and the TGI [15] was 8.62 µM. The GI50 [16] was 5.6 µM, the TGI [16] was > 100 µM and the GI50 [17] was 2.24 µM. The TGI [17] was 7.69 µM, the GI50 [18] was 2.18 µM and the TGI [18] was > 100 µM. For the same compound, the GI50 [19] was 3.35 µM, the TGI [19] was > 100 µM and the GI50 [20] was 4.21 µM. The TGI [20] was > 100 µM, the GI50 [21] was 3.76 µM and the TGI [21] was > 100 µM. For the same compound, the GI50 [22] was 2.51 µM, the TGI [22] was 6.8 µM and the GI50 [23] was 2.63 µM. The TGI [23] was 9.12 µM, the GI50 [24] was 3.28 µM and the TGI [24] was 12.9 µM. The GI50 [25] was 4.26 µM, the TGI [25] was > 100 µM and the GI50 [26] was 3.7 µM. For the same compound, the TGI [26] was > 100 µM, the GI50 [27] was 3.74 µM and the TGI [27] was 30.9 µM. For the same compound, the GI50 [28] was 5.98 µM, the TGI [28] was > 100 µM and the GI50 [29] was 3.36 µM. For the same compound, the TGI [29] was > 100 µM, the GI50 [30] was 3.19 µM and the TGI [30] was 63.5 µM. It also gave a GI50 [31] of 3.72 µM, a TGI [31] of 84.3 µM and a GI50 [32] of 5.66 µM. For the same compound, the TGI [32] was > 100 µM, the GI50 [33] was 2.97 µM and the TGI [33] was 10.5 µM. The GI50 [34] was 2.16 µM, the TGI [34] was 5.21 µM and the GI50 [35] was 4.77 µM. For the same compound, the TGI [35] was 94.7 µM, the GI50 [36] was 3.96 µM and the TGI [36] was 9.44 µM. It also gave a GI50 [37] of 2.81 µM, a TGI [37] of 10.1 µM and a GI50 [38] of 5.45 µM. For the same compound, the TGI [38] was > 100 µM, the GI50 [39] was 3.24 µM and the TGI [39] was 16.9 µM. The GI50 [40] was 3.71 µM, the TGI [40] was > 100 µM and the GI50 [41] was 5.4 µM. The TGI [41] was > 100 µM, the GI50 [42] was 2.56 µM and the TGI [42] was 17.7 µM. The GI50 [43] was 3.64 µM, the TGI [43] was 25.8 µM and the GI50 [44] was 4.71 µM. The TGI [44] was > 100 µM, the GI50 [45] was 8.82 µM and the TGI [45] was > 100 µM. The GI50 [46] was 1.11 µM, the TGI [46] was 11.1 µM and the GI50 [47] was 1.82 µM. For the same compound, the TGI [47] was > 100 µM, the GI50 [48] was 9.17 µM and the TGI [48] was > 100 µM. It also gave a GI50 [49] of 3.37 µM, a TGI [49] of 14.9 µM and a GI50 [50] of 3.84 µM. The TGI [50] was > 100 µM, the GI50 [51] was 3.15 µM and the TGI [51] was 13.3 µM. The GI50 [52] was 82.3 µM, the TGI [52] was > 100 µM and the GI50 [53] was 9.83 µM. For the same compound, the TGI [53] was > 100 µM, the GI50 [54] was 5.55 µM and the TGI [54] was 56.7 µM. The GI50 [55] was 25.5 µM, the TGI [55] was > 100 µM and the GI50 [56] was 1.61 µM. The TGI [56] was 4.56 µM, the GI50 [57] was 3.96 µM and the TGI [57] was > 100 µM. For the same compound, the GI50 [58] was 4.39 µM, the TGI [58] was > 100 µM and the GI50 [59] was 2.67 µM. The TGI [59] was 19.3 µM.
